Reference: the supplement of paper PMC6045584
± gives the standard deviation of the averaged measurements.

Assays:
[1] = compound: T1, C[C@]1(O)C[C@@H](c2nc(-c3ccc4ccc(-c5ccccc5)nc4c3)c3c(N)nccn32)C1 [OSI-906]; assay: surviving fraction relative to DMSO-only wells; higher = less growth inhibition; conditions: exposure time: 5 days
How it was run: (§1)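 Viability was determined by CellTiter-Glo luminescence, expressed as surviving fraction normalised to the median of DMSO-only wells. The cells were log-phase tumour cell lines seeded at 250–500 per well in 384-well plates and, after 24 hours, exposed continuously for five days to inhibitors at 0.5, 1, 5, 10, 50, 100, 500 and 1000 nM. Three screens per line were run, keeping only lines with replicate Pearson r >0.7 and median Z' >0.3.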

[2] = compound: CC(=O)NCC(=O)N1[C@@H]2CC[C@H]1c1ccc(Nc3ncc(C(F)(F)F)c(NC4CCC4)n3)cc12; assay: as above; conditions: exposure time: 5 days
How it was run: as §1

[3] = compound: T2, CC(=O)O[C@H]1C(=O)[C@@]2(C)[C@H]([C@H](OC(=O)c3ccccc3)[C@]3(O)C[C@H](OC(=O)[C@H](O)[C@@H](NC(=O)c4ccccc4)c4ccccc4)C(C)=C1C3(C)C)[C@]1(OC(C)=O)CO[C@@H]1C[C@@H]2O [PACLITAXEL]; assay: as above; conditions: exposure time: 5 days
How it was run: as §1

[4] = compound: T3, O=C(O)C1(C(=O)O)CCC1.[NH2-].[NH2-].[Pt+2] [CARBOPLATIN]; assay: as above; conditions: exposure time: 5 days
How it was run: as §1

[5] = compound: T4, COc1cc2ncnc(Nc3ccc(F)c(Cl)c3)c2cc1OCCCN1CCOCC1 [GEFITINIB]; assay: as above; conditions: exposure time: 5 days
How it was run: as §1

[6] = compound: CC(=O)c1c(C)c2cnc(Nc3ccc(N4CCNCC4)cn3)nc2n(C2CCCC2)c1=O; assay: as above; conditions: exposure time: 5 days
How it was run: as §1

[7] = compound: T5, COCC[n+]1c2c(n(Cc3cnccn3)c1C)C(=O)c1ccccc1C2=O [YM155]; assay: as above; conditions: exposure time: 5 days
How it was run: as §1

[8] = compound: Cc1ccc(-c2cc(C(F)(F)F)nn2-c2ccc(S(N)(=O)=O)cc2)cc1 [CELECOXIB]; assay: as above; conditions: exposure time: 5 days
How it was run: as §1

[9] = compound: T6, CC[C@@]1(O)C(=O)OCc2c1cc1n(c2=O)Cc2cc3ccccc3nc2-1 [CAMPTOTHECIN]; assay: as above; conditions: exposure time: 5 days
How it was run: as §1

[10] = compound: T1, OSI-906; assay: area under dose-response curve of surviving fraction (unscaled, Aref=0) (surviving fraction x log10(nM)); higher = more resistant; conditions: exposure time: 5 days; dose range 0.5-1000 nM
How it was run: (§2)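 Surviving fractions were fitted by 3-parameter logistic regression in the drc R package to give dose-response survival curves. They came from tumour cell lines treated for five days with eight inhibitor concentrations from 0.5 to 1000 nM and read by CellTiter-Glo luminescence against DMSO-only wells. The area under the curve is the unscaled activity area. It was calculated over log10 dose with Aref = 0.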

[11] = compound: CC(=O)NCC(=O)N1[C@@H]2CC[C@H]1c1ccc(Nc3ncc(C(F)(F)F)c(NC4CCC4)n3)cc12; assay: as above; conditions: exposure time: 5 days; dose range 0.5-1000 nM
How it was run: as §2

[12] = compound: T2, PACLITAXEL; assay: as above; conditions: exposure time: 5 days; dose range 0.5-1000 nM
How it was run: as §2

[13] = compound: T3, CARBOPLATIN; assay: as above; conditions: exposure time: 5 days; dose range 0.5-1000 nM
How it was run: as §2

[14] = compound: T4, GEFITINIB; assay: as above; conditions: exposure time: 5 days; dose range 0.5-1000 nM
How it was run: as §2

[15] = compound: CC(=O)c1c(C)c2cnc(Nc3ccc(N4CCNCC4)cn3)nc2n(C2CCCC2)c1=O; assay: as above; conditions: exposure time: 5 days; dose range 0.5-1000 nM
How it was run: as §2

[16] = compound: T5, YM155; assay: as above; conditions: exposure time: 5 days; dose range 0.5-1000 nM
How it was run: as §2

[17] = compound: T6, CAMPTOTHECIN; assay: as above; conditions: exposure time: 5 days; dose range 0.5-1000 nM
How it was run: as §2

With HUO3N1 BONE the surviving fraction ([1]; 0.5 nM) was 0.938 ± 0.09, the surviving fraction ([1]; 1 nM) was 0.933 ± 0.068 and the surviving fraction ([1]; 5 nM) was 0.948 ± 0.082. The surviving fraction ([1]; 10 nM) was 0.92 ± 0.053, the surviving fraction ([1]; 50 nM) was 0.975 ± 0.047 and the surviving fraction ([1]; 100 nM) was 0.88 ± 0.029. The surviving fraction ([1]; 500 nM) was 0.779 ± 0.031, the surviving fraction ([1]; 1000 nM) was 0.794 ± 0.035 and the surviving fraction ([2]; 0.5 nM) was 1.01 ± 0.064. For the same test system, the surviving fraction ([2]; 1 nM) was 0.997 ± 0.054, the surviving fraction ([2]; 5 nM) was 1.01 ± 0.021 and the surviving fraction ([2]; 10 nM) was 1.02 ± 0.036. For the same test system, the surviving fraction ([2]; 50 nM) was 1.03 ± 0.076, the surviving fraction ([2]; 100 nM) was 0.972 ± 0.036 and the surviving fraction ([2]; 500 nM) was 0.737 ± 0.064. For the same test system, the surviving fraction ([2]; 1000 nM) was 0.533 ± 0.037, the surviving fraction ([3]; 0.5 nM) was 0.808 ± 0.025 and the surviving fraction ([3]; 1 nM) was 0.74 ± 0.019. For the same test system, the surviving fraction ([3]; 5 nM) was 0.334 ± 0.011, the surviving fraction ([3]; 10 nM) was 0.23 ± 0.0085 and the surviving fraction ([3]; 50 nM) was 0.129 ± 0.0068. It also gave a surviving fraction ([3]; 100 nM) of 0.115 ± 0.0063, a surviving fraction ([3]; 500 nM) of 0.094 ± 0.006 and a surviving fraction ([3]; 1000 nM) of 0.1 ± 0.018. For the same test system, the surviving fraction ([4]; 0.5 nM) was 1.08 ± 0.016, the surviving fraction ([4]; 1 nM) was 1.06 ± 0.061 and the surviving fraction ([4]; 5 nM) was 1.13 ± 0.065. It also gave a surviving fraction ([4]; 10 nM) of 1.12 ± 0.046, a surviving fraction ([4]; 50 nM) of 1.11 ± 0.05 and a surviving fraction ([4]; 100 nM) of 1.09 ± 0.034. It also gave a surviving fraction ([4]; 500 nM) of 1.05 ± 0.016, a surviving fraction ([4]; 1000 nM) of 0.98 ± 0.068 and a surviving fraction ([5]; 0.5 nM) of 0.977 ± 0.032. For the same test system, the surviving fraction ([5]; 1 nM) was 0.972 ± 0.053, the surviving fraction ([5]; 5 nM) was 1.05 ± 0.022 and the surviving fraction ([5]; 10 nM) was 1.04 ± 0.018. The surviving fraction ([5]; 50 nM) was 1.08 ± 0.044, the surviving fraction ([5]; 100 nM) was 1.05 ± 0.039 and the surviving fraction ([5]; 500 nM) was 0.991 ± 0.052. The surviving fraction ([5]; 1000 nM) was 0.974 ± 0.052, the surviving fraction ([6]; 0.5 nM) was 1.01 ± 0.041 and the surviving fraction ([6]; 1 nM) was 1.04 ± 0.032. For the same test system, the surviving fraction ([6]; 5 nM) was 1.05 ± 0.035, the surviving fraction ([6]; 10 nM) was 1.01 ± 0.066 and the surviving fraction ([6]; 50 nM) was 1.04 ± 0.024. For the same test system, the surviving fraction ([6]; 100 nM) was 1.1 ± 0.016, the surviving fraction ([6]; 500 nM) was 1.01 ± 0.05 and the surviving fraction ([6]; 1000 nM) was 1.03 ± 0.022. For the same test system, the surviving fraction ([7]; 0.5 nM) was 0.984 ± 0.065, the surviving fraction ([7]; 1 nM) was 1.06 ± 0.015 and the surviving fraction ([7]; 5 nM) was 1.01 ± 0.036. It also gave a surviving fraction ([7]; 10 nM) of 1.06 ± 0.04, a surviving fraction ([7]; 50 nM) of 0.529 ± 0.14 and a surviving fraction ([7]; 100 nM) of 0.477 ± 0.046. For the same test system, the surviving fraction ([7]; 500 nM) was 0.137 ± 0.0093, the surviving fraction ([7]; 1000 nM) was 0.0927 ± 0.0065 and the surviving fraction ([8]; 0.5 nM) was 1.03 ± 0.04. It also gave a surviving fraction ([8]; 1 nM) of 0.998 ± 0.039, a surviving fraction ([8]; 5 nM) of 1.06 ± 0.057 and a surviving fraction ([8]; 10 nM) of 1.08 ± 0.061. It also gave a surviving fraction ([8]; 50 nM) of 1.12 ± 0.017, a surviving fraction ([8]; 100 nM) of 1.02 ± 0.039 and a surviving fraction ([8]; 500 nM) of 1 ± 0.023. For the same test system, the surviving fraction ([8]; 1000 nM) was 0.974 ± 0.036, the surviving fraction ([9]; 0.5 nM) was 0.761 ± 0.25 and the surviving fraction ([9]; 1 nM) was 0.955 ± 0.14. It also gave a surviving fraction ([9]; 5 nM) of 0.639 ± 0.046, a surviving fraction ([9]; 10 nM) of 0.373 ± 0.057 and a surviving fraction ([9]; 50 nM) of 0.228 ± 0.016. It also gave a surviving fraction ([9]; 100 nM) of 0.203 ± 0.025, a surviving fraction ([9]; 500 nM) of 0.1357 ± 0.0011 and a surviving fraction ([9]; 1000 nM) of 0.112 ± 0.0079. For the same test system, the “area under dose-response curve” value [10] was 2.99, the “area under dose-response curve” value [11] was 3.12 and the “area under dose-response curve” value [12] was 0.938. The “area under dose-response curve” value [13] was 3.59, the “area under dose-response curve” value [14] was 3.38 and the “area under dose-response curve” value [15] was 3.42. The “area under dose-response curve” value [16] was 2.22 and the “area under dose-response curve” value [17] was 1.37.
